Results taken from patent US12371454B2, “Cyclic peptide compound having Kras inhibitory action” (priority 2019, dated 2025).
Starred links: 1 amine or outer side, 2 acyl side, 3 side chain; linkers in the order of their positions; H or OH if unused. Positions of bridges follow the written chain, without caps; N, C: chain ends. Non-standard residues stand in square brackets, D forms with d. Residues, ends and D or L forms follow the SMILES beside them. *: point of attachment. hPhe(3-Cl-4-CF3) = N[C@@H](CCc1ccc(C(F)(F)F)c(Cl)c1)C(=O)O; NMePhe(4-CF3) = CN[C@@H](Cc1ccc(C(F)(F)F)cc1)C(=O)O; NMePhe(3-Br) = CN[C@@H](Cc1cccc(Br)c1)C(=O)O; NMePhe(3-Cl) = CN[C@@H](Cc1cccc(Cl)c1)C(=O)O; NMePhe(4-Br) = CN[C@@H](Cc1ccc(Br)cc1)C(=O)O; NMePhe(4-Me) = CN[C@@H](Cc1ccc(C)cc1)C(=O)O; NMePhe(2-Cl) = CN[C@@H](Cc1ccccc1Cl)C(=O)O; NMePhe(4-F) = CN[C@@H](Cc1ccc(F)cc1)C(=O)O; NMedβ3hAla = C[C@H](CC(=O)[*:2])N(C)[*:1]; NMePhe(2-F) = CN[C@@H](Cc1ccccc1F)C(=O)O; NMehPhe = CN[C@@H](CCc1ccccc1)C(=O)O; NMeY = CN[C@@H](Cc1ccc(O)cc1)C(=O)O; NMeCha = CN[C@@H](CC1CCCCC1)C(=O)O; NMeF = CN[C@@H](Cc1ccccc1)C(=O)O; NMeD = CN[C@@H](CC(=O)O)C(=O)O; NMeL = CN[C@@H](CC(C)C)C(=O)O; NMeV = CN[C@H](C(=O)O)C(C)C; d(β3hA) = C[C@@H](N)CC(=O)O; NMeAbu = CC[C@H](NC)C(=O)O; NMeA = CN[C@@H](C)C(=O)O; Piperidide = C1CCN(*)CC1; Ac5c = NC1(C(=O)O)CCCC1; Aze = O=C(O)[C@@H]1CCN1; Sar = CNCC(=O)O

Assays:
[1] = test system: Human pancreatic cancer cell line AsPC-1; experiment: Measurement of AsPC-1 cell growth inhibition (AsPC-1 CGI); assay type: cell-based; conditions: 96 h
Method in brief: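 AsPC-1 cells in 15% FBS RPMI-1640 were exposed to test compound for 96 hours at 37° C, with CellTiter-Glo as endpoint.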

[2] = target: T1, Kras and SOS1 (biotin-tagged human Kras loaded with GDP, His-tagged human SOS1) (Homo sapiens, UniProt P01116, G12D); experiment: Protein-protein interaction inhibition between Kras and SOS1 (KrasGl2D-SOS PPI) using AlphaScreen; assay type: binding; conditions: AlphaScreen; biotin-tagged human Kras loaded with GDP, His-tagged human SOS1; read-out: KRAS G12D-SOS PPI IC50
T1 construct: made in house; host or cells: E. coli (stated for Kras only)
T1 sequence (P01116 1-188 isoform P01116-2 G12D): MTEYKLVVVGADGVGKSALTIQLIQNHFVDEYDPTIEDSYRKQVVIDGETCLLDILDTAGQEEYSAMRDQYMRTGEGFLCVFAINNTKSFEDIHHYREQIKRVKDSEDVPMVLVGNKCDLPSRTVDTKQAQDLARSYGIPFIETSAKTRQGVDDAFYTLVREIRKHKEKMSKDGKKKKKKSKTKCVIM
Method in brief: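 AlphaScreen format: Ni donor beads capture His-SOS1, streptavidin acceptor beads capture biotinylated Kras (E. coli-expressed, GDP-loaded post-purification). Excite 680 nm, read 520-620 nm.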

Row | SMILES | IC50 [1] [µM] | IC50 [2] [µM]
1 | CC[C@H](C)[C@@H]1NC(=O)[C@H](CC(C)C)N(C)C(=O)C[C@@H](C(=O)N2CCCCC2)N(C)C(=O)[C@H](C(C)C)N(C)C(=O)C2(CCCC2)NC(=O)[C@@H]2CCCN2C(=O)[C@H](CCc2ccc(C(F)(F)F)c(Cl)c2)NC(=O)CN(C)C(=O)[C@H](Cc2ccc(OC)cc2)N(C)C(=O)CN(C)C(=O)CN(C)C1=O [Compound 1588] ([NMeL]I[Sar][Sar][NMeY](Me)[Sar][hPhe(3-Cl-4-CF3)]P[Ac5c][NMeV][NMeD]-Piperidide; lactam N-11) | 0.1 to 0.5 | 0.0041
2 | CC[C@H](C)[C@@H]1NC(=O)[C@H](CC(C)C)N(C)C(=O)C[C@@H](C)N(C)C(=O)[C@H](C(C)C)N(C)C(=O)C2(CCCC2)NC(=O)[C@@H]2CCCN2C(=O)[C@H](CCc2ccc(C(F)(F)F)c(Cl)c2)NC(=O)CN(C)C(=O)[C@H](COc2ccccc2Cl)N(C)C(=O)CN(C)C(=O)CN(C)C1=O [Compound 1589] | 0.1 to 0.5 | 0.039
3 | CC[C@H](C)[C@@H]1NC(=O)[C@H](CC(C)C)N(C)C(=O)C[C@@H](C)N(C)C(=O)[C@H](C(C)C)N(C)C(=O)C2(CCCC2)NC(=O)[C@@H]2CCCN2C(=O)[C@H](CCc2ccc(C(F)(F)F)c(Cl)c2)NC(=O)CN(C)C(=O)[C@H](Cc2ccc(Br)cc2)N(C)C(=O)CN(C)C(=O)CN(C)C1=O [Compound 1590] (cyclo([Ac5c][NMeV][NMedβ3hAla][NMeL]I[Sar][Sar][NMePhe(4-Br)][Sar][hPhe(3-Cl-4-CF3)]P)) | 0.05 to 0.1 | 0.0032
4 | CC[C@H](C)[C@@H]1NC(=O)[C@H](CC(C)C)N(C)C(=O)C[C@@H](C(=O)N2CCCCC2)N(C)C(=O)[C@H](C(C)C)N(C)C(=O)C2(CCCC2)NC(=O)[C@@H]2CCCN2C(=O)[C@H](CCc2ccc(C(F)(F)F)c(Cl)c2)NC(=O)CN(C)C(=O)[C@H](Cc2ccc(C)cc2)N(C)C(=O)CN(C)C(=O)CN(C)C1=O [Compound 1594] ([NMeL]I[Sar][Sar][NMePhe(4-Me)][Sar][hPhe(3-Cl-4-CF3)]P[Ac5c][NMeV][NMeD]-Piperidide; lactam N-11) | 0.1 to 0.5 | 0.0032
5 | CC[C@H](C)[C@@H]1NC(=O)[C@H](CC(C)C)N(C)C(=O)C[C@@H](C)N(C)C(=O)[C@H](C(C)C)N(C)C(=O)C2(CCCC2)NC(=O)[C@@H]2CCCN2C(=O)[C@H](CCc2ccc(C(F)(F)F)c(Cl)c2)NC(=O)CN(C)C(=O)[C@H](Cc2cccc(Br)c2)N(C)C(=O)CN(C)C(=O)CN(C)C1=O [Compound 1597] (cyclo([Ac5c][NMeV][NMedβ3hAla][NMeL]I[Sar][Sar][NMePhe(3-Br)][Sar][hPhe(3-Cl-4-CF3)]P)) | 0.05 to 0.1 | 0.011
6 | CC[C@H](C)[C@@H]1NC(=O)[C@H](CC(C)C)N(C)C(=O)C[C@@H](C(=O)N2CCCCC2)N(C)C(=O)[C@H](C(C)C)N(C)C(=O)C2(CCCC2)NC(=O)[C@@H]2CCCN2C(=O)[C@H](CCc2ccc(C(F)(F)F)c(Cl)c2)NC(=O)CN(C)C(=O)[C@H](Cc2ccccc2)N(C)C(=O)CN(C)C(=O)CN(C)C1=O [Compound 1598] ([NMeL]I[Sar][Sar][NMeF][Sar][hPhe(3-Cl-4-CF3)]P[Ac5c][NMeV][NMeD]-Piperidide; lactam N-11) | 0.1 to 0.5 | 0.0092
7 | CC[C@H](C)[C@@H]1NC(=O)[C@H](CC(C)C)N(C)C(=O)C[C@@H](C)N(C)C(=O)[C@H](C(C)C)N(C)C(=O)C2(CCCC2)NC(=O)[C@@H]2CCCN2C(=O)[C@H](CCc2ccc(C(F)(F)F)c(Cl)c2)NC(=O)CN(C)C(=O)[C@H](Cc2ccccc2F)N(C)C(=O)CN(C)C(=O)CN(C)C1=O [Compound 1599] (cyclo([Ac5c][NMeV][NMedβ3hAla][NMeL]I[Sar][Sar][NMePhe(2-F)][Sar][hPhe(3-Cl-4-CF3)]P)) | 0.1 to 0.5 | 0.017
8 | CC[C@H](C)[C@@H]1NC(=O)[C@H](CC(C)C)N(C)C(=O)C[C@@H](C)NC(=O)[C@H](C(C)C)N(C)C(=O)C2(CCCC2)NC(=O)[C@@H]2CCCN2C(=O)[C@H](CCc2ccc(C(F)(F)F)c(Cl)c2)NC(=O)CN(C)C(=O)[C@H](Cc2ccc(F)cc2)N(C)C(=O)CN(C)C(=O)CN(C)C1=O [Compound 1602] (cyclo([Ac5c][NMeV][d(β3hA)][NMeL]I[Sar][Sar][NMePhe(4-F)][Sar][hPhe(3-Cl-4-CF3)]P)) | 0.1 to 0.5 | 0.0063
9 | CC[C@H](C)[C@@H]1NC(=O)[C@H](CC(C)C)N(C)C(=O)C[C@@H](C)N(C)C(=O)[C@H](C(C)C)N(C)C(=O)C2(CCCC2)NC(=O)[C@@H]2CCCN2C(=O)[C@H](CCc2ccc(C(F)(F)F)c(Cl)c2)NC(=O)CN(C)C(=O)[C@H](Cc2ccccc2)N(C)C(=O)CN(C)C(=O)CN(C)C1=O [Compound 1604] (cyclo([Ac5c][NMeV][NMedβ3hAla][NMeL]I[Sar][Sar][NMeF][Sar][hPhe(3-Cl-4-CF3)]P)) | 0.05 to 0.1 | 0.0058
10 | CC[C@H](C)[C@@H]1NC(=O)[C@H](CC(C)C)N(C)C(=O)C[C@@H](C)NC(=O)[C@H](C(C)C)N(C)C(=O)C2(CCCC2)NC(=O)[C@@H]2CCCN2C(=O)[C@H](CCc2ccc(C(F)(F)F)c(Cl)c2)NC(=O)CN(C)C(=O)[C@H](Cc2ccc(OC)cc2)N(C)C(=O)CN(C)C(=O)CN(C)C1=O [Compound 1605] (cyclo([Ac5c][NMeV][d(β3hA)][NMeL]I[Sar][Sar][NMeY](Me)[Sar][hPhe(3-Cl-4-CF3)]P)) | 0.1 to 0.5 | 0.012
11 | CC[C@H](C)[C@@H]1NC(=O)[C@H](CC)N(C)C(=O)C[C@@H](C)NC(=O)[C@H](C(C)C)N(C)C(=O)C2(CCCC2)NC(=O)[C@@H]2CCCN2C(=O)[C@H](CCc2ccc(C(F)(F)F)c(Cl)c2)NC(=O)CN(C)C(=O)[C@H](CC2CCCCC2)N(C)C(=O)[C@@H]2CCN2C(=O)[C@H](C)N(C)C1=O [Compound 1607] (cyclo([Ac5c][NMeV][d(β3hA)][NMeAbu]I[NMeA][Aze][NMeCha][Sar][hPhe(3-Cl-4-CF3)]P)) | 0.1 to 0.5 | 0.028
12 | CC[C@H](C)[C@@H]1NC(=O)[C@H](CC(C)C)N(C)C(=O)C[C@@H](C(=O)N2CCCCC2)N(C)C(=O)[C@H](C(C)C)N(C)C(=O)C2(CCCC2)NC(=O)[C@@H]2CCCN2C(=O)[C@H](CCc2ccc(C(F)(F)F)c(Cl)c2)NC(=O)CN(C)C(=O)[C@H](CCc2ccccc2)N(C)C(=O)CN(C)C(=O)CN(C)C1=O [Compound 1608] ([NMeL]I[Sar][Sar][NMehPhe][Sar][hPhe(3-Cl-4-CF3)]P[Ac5c][NMeV][NMeD]-Piperidide; lactam N-11) | 0.1 to 0.5 | 0.0058
13 | CC[C@H](C)[C@@H]1NC(=O)[C@H](CC(C)C)N(C)C(=O)C[C@@H](C(=O)N2CCCCC2)N(C)C(=O)[C@H](C(C)C)N(C)C(=O)C2(CCCC2)NC(=O)[C@@H]2CCCN2C(=O)[C@H](CCc2ccc(C(F)(F)F)c(Cl)c2)NC(=O)CN(C)C(=O)[C@H](Cc2cccc(Cl)c2)N(C)C(=O)CN(C)C(=O)CN(C)C1=O [Compound 1611] ([NMeL]I[Sar][Sar][NMePhe(3-Cl)][Sar][hPhe(3-Cl-4-CF3)]P[Ac5c][NMeV][NMeD]-Piperidide; lactam N-11) | 0.1 to 0.5 | 0.0032
14 | CC[C@H](C)[C@@H]1NC(=O)[C@H](CC(C)C)N(C)C(=O)C[C@@H](C)N(C)C(=O)[C@H](C(C)C)N(C)C(=O)C2(CCCC2)NC(=O)[C@@H]2CCCN2C(=O)[C@H](CCc2ccc(C(F)(F)F)c(Cl)c2)NC(=O)CN(C)C(=O)[C@H](Cc2ccccc2Cl)N(C)C(=O)CN(C)C(=O)CN(C)C1=O [Compound 1615] (cyclo([Ac5c][NMeV][NMedβ3hAla][NMeL]I[Sar][Sar][NMePhe(2-Cl)][Sar][hPhe(3-Cl-4-CF3)]P)) | 0.1 to 0.5 | 0.04
15 | CC[C@H](C)[C@@H]1NC(=O)[C@H](CC(C)C)N(C)C(=O)C[C@@H](C)N(C)C(=O)[C@H](C(C)C)N(C)C(=O)C2(CCCC2)NC(=O)[C@@H]2CCCN2C(=O)[C@H](CCc2ccc(C(F)(F)F)c(Cl)c2)NC(=O)CN(C)C(=O)[C@H](Cc2ccc(C(F)(F)F)cc2)N(C)C(=O)CN(C)C(=O)CN(C)C1=O [Compound 1617] (cyclo([Ac5c][NMeV][NMedβ3hAla][NMeL]I[Sar][Sar][NMePhe(4-CF3)][Sar][hPhe(3-Cl-4-CF3)]P)) | 0.05 to 0.1 | 0.0027
16 | CC[C@H](C)[C@@H]1NC(=O)[C@H](CC(C)C)N(C)C(=O)C[C@@H](C)NC(=O)[C@H](C(C)C)N(C)C(=O)C2(CCCC2)NC(=O)[C@@H]2CCCN2C(=O)[C@H](CCc2ccc(C(F)(F)F)c(Cl)c2)NC(=O)CN(C)C(=O)[C@H](Cc2ccc(C(F)(F)F)cc2)N(C)C(=O)CN(C)C(=O)CN(C)C1=O [Compound 1620] (cyclo([Ac5c][NMeV][d(β3hA)][NMeL]I[Sar][Sar][NMePhe(4-CF3)][Sar][hPhe(3-Cl-4-CF3)]P)) | 0.05 to 0.1 | 0.0054
17 | CC[C@H](C)[C@@H]1NC(=O)[C@H](CC(C)C)N(C)C(=O)C[C@@H](C)N(C)C(=O)[C@H](C(C)C)N(C)C(=O)C2(CCCC2)NC(=O)[C@@H]2CCCN2C(=O)[C@H](CCc2ccc(C(F)(F)F)c(Cl)c2)NC(=O)CN(C)C(=O)[C@H](Cc2cccc(Cl)c2)N(C)C(=O)CN(C)C(=O)CN(C)C1=O [Compound 1621] (cyclo([Ac5c][NMeV][NMedβ3hAla][NMeL]I[Sar][Sar][NMePhe(3-Cl)][Sar][hPhe(3-Cl-4-CF3)]P)) | 0.05 to 0.1 | 0.0072
